Test [1] deals with JJN-3. The test can be described thus: Induction of apoptosis in human JJN-3 cells assessed as late apoptotic cells at 15 uM after 48 hrs by annexinV/propidium iodide staining (reference value: 9.59%). In kind it is functional.
A short description of test [2]: Induction of apoptosis in human XG6 cells assessed as viable cells at 15 uM after 48 hrs by annexinV/propidium iodide staining (reference value: 83.3%). In kind it is functional. To be noted: XG6, 48 h, read-out: Activity.
A short description of test [3]: Induction of apoptosis in human XG6 cells assessed as early apoptotic cells at 15 uM after 48 hrs by annexinV/propidium iodide staining (reference value: 8.62%). In kind it is functional.
A short description of test [4]: Induction of apoptosis in human XG6 cells assessed as late apoptotic cells at 15 uM after 48 hrs by annexinV/propidium iodide staining (reference value: 7.78%). In kind it is functional.
For test [5], the system named is JJN-3. The test can be described thus: Induction of apoptosis in human JJN-3 cells assessed as viable cells at 15 uM after 48 hrs by annexinV/propidium iodide staining (reference value: 75.9%). Particulars: JJN-3, 48 h, read-out: Activity. The test is classed as functional.
Test [6] has as its system JJN-3. The test can be described thus: Induction of apoptosis in human JJN-3 cells assessed as early apoptotic cells at 15 uM after 48 hrs by annexinV/propidium iodide staining (reference value: 13.3%). In kind it is functional.
Test [7] can be described thus: Induction of apoptosis in human XG6 cells assessed as early apoptotic cells at 7.5 uM after 48 hrs by annexinV/propidium iodide staining (reference value: 8.62%). In kind it is functional.
A short description of test [8]: Induction of apoptosis in human XG6 cells assessed as late apoptotic cells at 7.5 uM after 48 hrs by annexinV/propidium iodide staining (reference value: 7.78%). In kind it is functional.
The nature of test [9]: Induction of apoptosis in human XG6 cells assessed as viable cells at 12.5 uM after 48 hrs by annexinV/propidium iodide staining (reference value: 83.3%). In kind it is functional. To be noted: XG6, 48 h, read-out: Activity.
Test [10] can be described thus: Induction of apoptosis in human XG6 cells assessed as early apoptotic cells at 12.5 uM after 48 hrs by annexinV/propidium iodide staining (reference value: 8.62%). The test is classed as functional.
Test [11] can be described thus: Induction of apoptosis in human XG6 cells assessed as late apoptotic cells at 12.5 uM after 48 hrs by annexinV/propidium iodide staining (reference value: 7.78%). The test is classed as functional.
Test [12] relates to JJN-3. Put plainly: Induction of apoptosis in human JJN-3 cells assessed as early apoptotic cells at 12.5 uM after 48 hrs by annexinV/propidium iodide staining (reference value: 13.3%). In kind it is functional.
Test [13] deals with JJN-3. Put plainly: Induction of apoptosis in human JJN-3 cells assessed as late apoptotic cells at 12.5 uM after 48 hrs by annexinV/propidium iodide staining (reference value: 9.59%). The test is classed as functional.
In test [14] the test system is JJN-3. Put plainly: Induction of apoptosis in human JJN-3 cells assessed as viable cells at 7.5 uM after 48 hrs by annexinV/propidium iodide staining (reference value: 75.9%). To be noted: JJN-3, 48 h, read-out: Activity. The test is classed as functional.
For test [15], the system named is JJN-3. The test can be described thus: Induction of apoptosis in human JJN-3 cells assessed as early apoptotic cells at 7.5 uM after 48 hrs by annexinV/propidium iodide staining (reference value: 13.3%). In kind it is functional.
In test [16] the test system is JJN-3. The test can be described thus: Induction of apoptosis in human JJN-3 cells assessed as late apoptotic cells at 7.5 uM after 48 hrs by annexinV/propidium iodide staining (reference value: 9.59%). In kind it is functional.
Test [17] concerns JJN-3. Put plainly: Induction of apoptosis in human JJN-3 cells assessed as viable cells at 12.5 uM after 48 hrs by annexinV/propidium iodide staining (reference value: 75.9%). The test is classed as functional. To be noted: JJN-3, 48 h, read-out: Activity.
The nature of test [18]: Induction of apoptosis in human XG6 cells assessed as viable cells at 7.5 uM after 48 hrs by annexinV/propidium iodide staining (reference value: 83.3%). In kind it is functional. Particulars: XG6, 48 h, read-out: Activity.
Test [19] deals with AP2-associated protein kinase 1 (Homo sapiens) (UniProt Q2M2I8). Put plainly: Inhibition of AAK1 (unknown origin) at 2.5 uM after 20 mins.
Test [20] concerns Tyrosine-protein kinase ABL1 (Homo sapiens), P00519 [F317L]. Put plainly: Inhibition of ABL1 F317L mutant (unknown origin) at 2.5 uM after 20 mins.
Sequence of Tyrosine-protein kinase ABL1 (Homo sapiens), P00519 [F317L] (P00519 whole entry F317L): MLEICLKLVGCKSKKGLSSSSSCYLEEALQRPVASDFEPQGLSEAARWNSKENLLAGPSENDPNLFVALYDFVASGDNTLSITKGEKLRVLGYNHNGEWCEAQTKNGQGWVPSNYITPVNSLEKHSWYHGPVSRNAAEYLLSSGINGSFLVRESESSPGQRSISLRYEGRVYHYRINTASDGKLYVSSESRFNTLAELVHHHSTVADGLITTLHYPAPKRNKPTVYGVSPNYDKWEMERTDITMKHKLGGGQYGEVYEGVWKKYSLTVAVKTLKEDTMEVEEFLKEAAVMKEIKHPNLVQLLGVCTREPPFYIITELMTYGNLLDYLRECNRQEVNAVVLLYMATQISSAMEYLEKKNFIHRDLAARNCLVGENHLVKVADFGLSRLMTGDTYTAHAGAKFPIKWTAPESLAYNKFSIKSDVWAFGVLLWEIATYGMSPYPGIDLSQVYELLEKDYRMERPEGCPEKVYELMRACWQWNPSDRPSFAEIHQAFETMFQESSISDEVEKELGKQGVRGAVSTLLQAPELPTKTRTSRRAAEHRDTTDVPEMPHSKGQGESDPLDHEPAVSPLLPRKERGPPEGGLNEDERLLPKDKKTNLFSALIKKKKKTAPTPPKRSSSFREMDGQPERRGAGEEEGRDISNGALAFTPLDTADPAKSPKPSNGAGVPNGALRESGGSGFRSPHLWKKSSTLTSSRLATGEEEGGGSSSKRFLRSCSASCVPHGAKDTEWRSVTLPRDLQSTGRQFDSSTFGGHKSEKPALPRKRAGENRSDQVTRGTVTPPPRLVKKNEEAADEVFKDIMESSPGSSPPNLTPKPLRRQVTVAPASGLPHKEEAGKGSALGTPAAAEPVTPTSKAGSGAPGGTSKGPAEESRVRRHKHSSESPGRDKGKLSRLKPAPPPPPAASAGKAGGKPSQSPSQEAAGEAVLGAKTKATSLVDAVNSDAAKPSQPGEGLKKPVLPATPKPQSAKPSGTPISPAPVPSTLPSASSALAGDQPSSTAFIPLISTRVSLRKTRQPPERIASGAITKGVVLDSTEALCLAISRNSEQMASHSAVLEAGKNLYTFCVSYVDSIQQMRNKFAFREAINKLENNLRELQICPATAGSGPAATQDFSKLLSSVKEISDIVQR
The target in test [21] is Tyrosine-protein kinase JAK1 (Homo sapiens) (UniProt P23458). Put plainly: Inhibition of JAK1 (unknown origin) at 100 uM after 20 mins.
Sequence of Tyrosine-protein kinase JAK1 (Homo sapiens) (P23458 whole entry, the tested form may be a part): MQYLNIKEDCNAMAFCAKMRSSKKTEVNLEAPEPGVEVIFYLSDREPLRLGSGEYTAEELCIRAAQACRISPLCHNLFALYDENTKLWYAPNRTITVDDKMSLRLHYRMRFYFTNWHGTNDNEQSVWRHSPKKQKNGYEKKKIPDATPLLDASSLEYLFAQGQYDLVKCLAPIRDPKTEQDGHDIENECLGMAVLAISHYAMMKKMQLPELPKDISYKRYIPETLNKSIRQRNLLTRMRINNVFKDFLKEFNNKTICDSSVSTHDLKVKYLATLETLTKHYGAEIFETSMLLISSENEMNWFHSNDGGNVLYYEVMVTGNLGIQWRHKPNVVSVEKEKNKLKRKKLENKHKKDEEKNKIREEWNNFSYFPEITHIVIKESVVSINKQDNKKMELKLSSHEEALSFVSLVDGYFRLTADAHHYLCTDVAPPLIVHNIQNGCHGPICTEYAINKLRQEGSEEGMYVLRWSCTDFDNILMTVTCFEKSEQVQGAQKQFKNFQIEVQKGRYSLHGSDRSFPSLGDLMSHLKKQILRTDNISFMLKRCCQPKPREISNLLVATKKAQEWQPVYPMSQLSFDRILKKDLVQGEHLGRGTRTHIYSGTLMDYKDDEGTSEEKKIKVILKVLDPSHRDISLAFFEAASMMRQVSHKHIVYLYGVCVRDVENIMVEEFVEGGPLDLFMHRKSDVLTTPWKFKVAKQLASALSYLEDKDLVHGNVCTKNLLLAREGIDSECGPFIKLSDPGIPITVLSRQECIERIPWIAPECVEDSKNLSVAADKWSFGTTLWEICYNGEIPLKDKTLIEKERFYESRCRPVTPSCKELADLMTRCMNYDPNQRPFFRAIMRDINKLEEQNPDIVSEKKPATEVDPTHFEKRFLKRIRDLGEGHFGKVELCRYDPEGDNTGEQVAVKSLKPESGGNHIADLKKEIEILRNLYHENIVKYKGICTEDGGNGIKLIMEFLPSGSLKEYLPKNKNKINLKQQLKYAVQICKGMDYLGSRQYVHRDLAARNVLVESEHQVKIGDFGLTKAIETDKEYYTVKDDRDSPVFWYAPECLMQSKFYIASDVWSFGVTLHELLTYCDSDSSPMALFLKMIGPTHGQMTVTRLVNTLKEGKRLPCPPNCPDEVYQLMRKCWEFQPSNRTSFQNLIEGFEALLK
In test [22] the target is Signal transducer and activator of transcription 3 (Homo sapiens) (UniProt P40763). Put plainly: Displacement of FAM-GpYLPQTV-NH2 from full-length Stat3 SH2 domain (unknown origin) up to 100 uM by fluorescence polarization.
Sequence of Signal transducer and activator of transcription 3 (Homo sapiens) (P40763 whole entry, the tested form may be a part): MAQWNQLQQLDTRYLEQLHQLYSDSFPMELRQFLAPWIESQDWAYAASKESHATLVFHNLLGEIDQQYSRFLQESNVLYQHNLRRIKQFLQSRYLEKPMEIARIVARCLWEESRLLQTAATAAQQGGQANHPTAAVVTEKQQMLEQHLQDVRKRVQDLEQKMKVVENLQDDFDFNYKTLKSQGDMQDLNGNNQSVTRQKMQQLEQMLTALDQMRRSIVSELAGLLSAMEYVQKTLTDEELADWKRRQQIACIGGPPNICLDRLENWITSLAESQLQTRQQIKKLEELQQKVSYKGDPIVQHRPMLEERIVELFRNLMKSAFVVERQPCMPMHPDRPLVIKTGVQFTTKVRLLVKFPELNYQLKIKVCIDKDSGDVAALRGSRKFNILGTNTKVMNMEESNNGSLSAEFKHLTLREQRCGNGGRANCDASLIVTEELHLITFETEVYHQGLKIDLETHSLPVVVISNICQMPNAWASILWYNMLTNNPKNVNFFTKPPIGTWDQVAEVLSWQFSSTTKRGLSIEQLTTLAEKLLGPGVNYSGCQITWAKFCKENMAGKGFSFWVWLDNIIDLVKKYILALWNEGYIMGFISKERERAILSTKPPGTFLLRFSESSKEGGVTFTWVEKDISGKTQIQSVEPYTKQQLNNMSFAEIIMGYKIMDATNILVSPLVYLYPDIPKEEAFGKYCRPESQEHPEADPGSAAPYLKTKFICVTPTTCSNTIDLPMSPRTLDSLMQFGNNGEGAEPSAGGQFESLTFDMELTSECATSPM
The target is the same in test [23]. The test can be described thus: Displacement of FAM-GpYLPQTV-NH2 from full-length Stat3 SH2 domain (unknown origin) up to 400 uM by fluorescence polarization.
Test [24] concerns XG6. Put plainly: Induction of apoptosis in human XG6 cells assessed as late apoptotic cells at 15 uM after 48 hrs by annexinV/propidium iodide staining. In kind it is functional, cell-based.
Test [25] has as its system JJN-3. The test can be described thus: Cytotoxicity against human JJN-3 cells assessed as growth inhibition after 48 hrs by MTT assay. The test is classed as functional, cell-based. In general terms: Tetrazolium dyes change colour on reduction, which living cells bring about.
Another test relates to SK-MM-2. Put plainly: Cytotoxicity against human SKMM-2 cells assessed as growth inhibition after 48 hrs by MTT assay. The test is classed as functional, cell-based.
The next test has as its system OCI-AML2. Put plainly: Cytotoxicity against human OCI-AML2 cells after 72 hrs by MTS assay. The test is classed as functional, cell-based.
The test system of test [26] is XG6. Put plainly: Cytotoxicity against human XG6 cells assessed as growth inhibition at 10 uM after 48 hrs by MTT assay. In kind it is functional, cell-based.
A further test has as its system DU-145. Put plainly: Cytotoxicity against human DU145 cells after 72 hrs by MTS assay. In kind it is functional, cell-based.
Another test has as its system MDA-MB-468. Put plainly: Cytotoxicity against human MDA-MB-468 cells after 72 hrs by MTS assay. In kind it is functional, cell-based. To be noted: MDA-MB-468, 72 h.
Test [27] concerns the target Signal transducer and activator of transcription 3 (Homo sapiens) (UniProt P40763). The test can be described thus: Inhibition of STAT3 phosphorylation in IL-6 stimulated human OPM2 cells at > IC50 after 30 mins by flow cytometry. Particulars: OPM-2. The test is classed as cell-based. (In flow cytometry, cells or beads pass a laser one at a time.)
The target in test [28] is T1, Tyrosine-protein kinase JAK2 (Homo sapiens, UniProt O60674). Put plainly: Inhibition of JAK2 (unknown origin) at 50 uM after 20 mins.
T1 sequence (O60674 whole entry): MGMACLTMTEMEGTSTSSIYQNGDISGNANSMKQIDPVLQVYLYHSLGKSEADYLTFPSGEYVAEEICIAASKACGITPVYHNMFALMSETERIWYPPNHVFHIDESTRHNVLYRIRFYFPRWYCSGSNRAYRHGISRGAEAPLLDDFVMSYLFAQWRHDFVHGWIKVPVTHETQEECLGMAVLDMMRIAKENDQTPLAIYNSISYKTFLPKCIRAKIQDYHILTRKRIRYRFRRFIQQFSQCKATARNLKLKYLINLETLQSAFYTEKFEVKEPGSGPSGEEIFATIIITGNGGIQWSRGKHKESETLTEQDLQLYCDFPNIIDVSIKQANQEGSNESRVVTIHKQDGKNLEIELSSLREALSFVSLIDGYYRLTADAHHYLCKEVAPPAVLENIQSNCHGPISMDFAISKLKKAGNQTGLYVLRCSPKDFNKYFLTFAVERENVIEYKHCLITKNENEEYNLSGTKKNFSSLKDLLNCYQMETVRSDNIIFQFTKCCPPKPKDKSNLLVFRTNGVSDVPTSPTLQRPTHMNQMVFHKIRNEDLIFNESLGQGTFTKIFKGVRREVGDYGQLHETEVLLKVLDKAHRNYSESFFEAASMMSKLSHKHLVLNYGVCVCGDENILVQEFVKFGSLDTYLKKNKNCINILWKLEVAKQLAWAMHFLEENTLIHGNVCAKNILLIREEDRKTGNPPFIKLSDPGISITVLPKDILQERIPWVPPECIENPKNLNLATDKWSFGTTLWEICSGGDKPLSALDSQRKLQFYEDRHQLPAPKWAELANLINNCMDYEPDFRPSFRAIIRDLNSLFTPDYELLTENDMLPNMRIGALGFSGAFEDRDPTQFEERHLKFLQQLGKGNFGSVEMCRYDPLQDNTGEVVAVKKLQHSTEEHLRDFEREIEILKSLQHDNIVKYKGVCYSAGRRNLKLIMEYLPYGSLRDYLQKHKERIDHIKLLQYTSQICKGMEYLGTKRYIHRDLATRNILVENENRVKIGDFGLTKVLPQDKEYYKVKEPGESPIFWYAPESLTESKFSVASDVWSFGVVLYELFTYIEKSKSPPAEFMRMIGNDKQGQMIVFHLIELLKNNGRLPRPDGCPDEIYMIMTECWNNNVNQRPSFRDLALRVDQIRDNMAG
Test [29] has as its target T2, Tyrosine-protein kinase JAK3 (Homo sapiens) (UniProt P52333).
T2 sequence (whole entry): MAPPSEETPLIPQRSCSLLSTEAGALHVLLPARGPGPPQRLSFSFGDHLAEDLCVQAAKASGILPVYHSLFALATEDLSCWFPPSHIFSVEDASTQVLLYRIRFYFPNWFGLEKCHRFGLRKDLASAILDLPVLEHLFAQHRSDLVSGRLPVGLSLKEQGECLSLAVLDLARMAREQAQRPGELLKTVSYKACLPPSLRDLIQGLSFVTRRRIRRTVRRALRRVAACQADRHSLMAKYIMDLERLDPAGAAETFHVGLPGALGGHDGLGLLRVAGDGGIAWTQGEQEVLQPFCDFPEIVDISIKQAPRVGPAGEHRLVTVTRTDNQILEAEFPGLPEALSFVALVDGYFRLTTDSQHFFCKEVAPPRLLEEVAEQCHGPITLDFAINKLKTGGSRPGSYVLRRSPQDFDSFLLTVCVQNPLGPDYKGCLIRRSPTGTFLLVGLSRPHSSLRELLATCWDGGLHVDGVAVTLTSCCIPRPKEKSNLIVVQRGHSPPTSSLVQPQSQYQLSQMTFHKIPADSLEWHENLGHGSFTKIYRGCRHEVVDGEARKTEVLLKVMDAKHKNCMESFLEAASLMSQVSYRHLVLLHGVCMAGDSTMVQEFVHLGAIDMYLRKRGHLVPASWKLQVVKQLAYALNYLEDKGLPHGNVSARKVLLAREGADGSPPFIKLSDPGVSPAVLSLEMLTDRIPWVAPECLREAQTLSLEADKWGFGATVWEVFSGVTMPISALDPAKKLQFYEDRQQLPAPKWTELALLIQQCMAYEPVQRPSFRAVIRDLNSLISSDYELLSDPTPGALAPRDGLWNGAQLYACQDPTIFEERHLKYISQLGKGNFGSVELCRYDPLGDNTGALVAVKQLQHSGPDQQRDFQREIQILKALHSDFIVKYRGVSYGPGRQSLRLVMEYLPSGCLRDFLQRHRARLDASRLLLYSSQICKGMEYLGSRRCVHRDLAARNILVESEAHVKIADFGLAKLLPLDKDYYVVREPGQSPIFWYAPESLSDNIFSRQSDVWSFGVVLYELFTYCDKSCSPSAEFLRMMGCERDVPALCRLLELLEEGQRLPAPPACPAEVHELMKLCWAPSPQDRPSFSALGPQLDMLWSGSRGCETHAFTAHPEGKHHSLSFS
Put plainly: Inhibition of JAK3 (unknown origin) at 50 uM after 20 mins.

In test [30] the target is Leukocyte tyrosine kinase receptor (Homo sapiens, UniProt P29376). Put plainly: Inhibition of TYK1 (unknown origin) after 20 mins.
Sequence of Leukocyte tyrosine kinase receptor (P29376 whole entry): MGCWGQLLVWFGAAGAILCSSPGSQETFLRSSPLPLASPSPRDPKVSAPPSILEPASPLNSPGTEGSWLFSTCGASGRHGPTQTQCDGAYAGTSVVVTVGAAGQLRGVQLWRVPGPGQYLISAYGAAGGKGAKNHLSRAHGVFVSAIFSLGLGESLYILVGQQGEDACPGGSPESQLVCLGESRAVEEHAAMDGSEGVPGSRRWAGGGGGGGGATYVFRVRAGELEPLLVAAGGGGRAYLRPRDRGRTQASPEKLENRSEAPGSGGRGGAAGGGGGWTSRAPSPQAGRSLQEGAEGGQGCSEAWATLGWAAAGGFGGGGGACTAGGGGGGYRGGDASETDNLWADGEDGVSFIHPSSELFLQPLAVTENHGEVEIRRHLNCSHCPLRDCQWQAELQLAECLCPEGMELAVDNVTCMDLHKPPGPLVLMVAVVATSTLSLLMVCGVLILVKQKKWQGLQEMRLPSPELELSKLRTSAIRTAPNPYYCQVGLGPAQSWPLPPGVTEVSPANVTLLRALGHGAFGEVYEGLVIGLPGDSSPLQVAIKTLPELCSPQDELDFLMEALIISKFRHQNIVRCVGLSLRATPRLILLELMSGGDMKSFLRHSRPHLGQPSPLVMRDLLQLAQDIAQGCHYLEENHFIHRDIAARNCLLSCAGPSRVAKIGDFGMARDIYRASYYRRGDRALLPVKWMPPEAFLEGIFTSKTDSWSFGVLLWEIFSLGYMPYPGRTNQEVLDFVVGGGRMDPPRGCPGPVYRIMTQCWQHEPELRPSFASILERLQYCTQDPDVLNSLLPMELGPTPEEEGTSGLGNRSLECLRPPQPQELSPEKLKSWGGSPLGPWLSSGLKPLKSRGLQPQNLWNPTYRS
In test [31] the target is T3, Tyrosine-protein kinase JAK3 (Homo sapiens, UniProt P52333).
T3 sequence (P52333 whole entry): T2 sequence (whole entry)
The test can be described thus: Inhibition of JAK3 (unknown origin) after 20 mins.

The target in test [32] is T1, Tyrosine-protein kinase JAK2. The test can be described thus: Inhibition of JAK2 (unknown origin) after 20 mins.

Calls of active or inactive are those of the source. The rule behind the calls is not given here.

By inhibition is commonly meant the relative decrease from the control value, in per cent. In general, EC50 refers to the concentration needed to bring the measured effect to its halfway point. For orientation: IC50 means the concentration that gives 50% inhibition. Low values mean higher potency, high ones lower potency.

As for `N[C@@H](Cc1ccc(N(CCCl)CCCl)cc1)C(=O)O` [MELPHALAN], the Activity in the test on JJN-3 [1] is listed as 23.7%; in test [3] it was 34%; in [4], 34.8%; with JJN-3 [6] it was 19.3%. In addition, the viability at 15 µM in [2] worked out at 30.8%; in the test with JJN-3 [5], 54.5%.
For `NS(=O)(=O)OCCn1cnc2c(Nc3ccc(F)cc3)nc(NCc3ccc(C4CCCCC4)cc3)nc21`, the Activity in test [7] was 22.7%; in test [8], 23.2%; in test [10] it was 7.57%; in [11], 74.4%; in the test with JJN-3 [12], 19.5%; in the test on JJN-3 [13], 38.8%. The Activity in the test on JJN-3 [15] came out at 17.6%; in the test with JJN-3 [16], 16%. In addition, the figures for the viability at 12.5 µM (in test [9]; in the test on JJN-3 [17]) were 1.98% and 36.4%, respectively. The values for the viability at 7.5 µM (in the test with JJN-3 [14]; in [18]) were 64.5% and 53.8%, respectively. In addition, the inhibition was found to be 52% in test [19], 50% in test [20], 50% in test [28] and 85% in test [29]. Further, in test [21], the inhibition result was “Active”. Moreover, the inhibition result in test [22], in test [23] and in test [27] was “inactive” each time. For the same molecule, the outcome in the test on XG6 [24], in the test with OCI-AML2 and in the test with DU-145 was Active. For the same molecule, the “growth inhibition (GI)” value in the test on JJN-3 [25] was “inactive”. In addition, the “growth inhibition (GI)” value with SK-MM-2 and in the test on XG6 [26] was “Active” in each case. In the test with MDA-MB-468, this molecule had an EC50 of 19.9 µM. For the same molecule, the IC50 came to 10.6 µM in [30], 10.5 µM in test [31] and 16.6 µM in [32].

These data come from ChEMBL document CHEMBL3124828, “A 2,6,9-hetero-trisubstituted purine inhibitor exhibits potent biological effects against multiple myeloma cells” (Bioorg Med Chem, 2013).
